From ChEMBL document CHEMBL1201862, “PubChem BioAssay data set” (2004)
Active and inactive are the calls of the source.

Legend:
[1] = target: T1, Carboxy-terminal domain RNA polymerase II polypeptide A small phosphatase 1 (Homo sapiens, UniProt Q9GZU7); assay: CTDSP1 inhibitors, concentration-response, biochemical, absorbance readout, ultra-high-throughput screen actives (AID 540297); format: functional
T1 sequence (Q9GZU7 whole entry): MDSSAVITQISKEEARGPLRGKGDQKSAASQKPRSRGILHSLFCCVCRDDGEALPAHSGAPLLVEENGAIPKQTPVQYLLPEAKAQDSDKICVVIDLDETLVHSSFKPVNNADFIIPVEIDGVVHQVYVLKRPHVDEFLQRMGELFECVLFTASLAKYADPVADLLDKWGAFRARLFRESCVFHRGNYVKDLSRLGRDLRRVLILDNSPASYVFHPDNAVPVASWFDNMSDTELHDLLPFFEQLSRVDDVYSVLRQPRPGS

[2] = target: Glucose-6-phosphate 1-dehydrogenase (Homo sapiens, UniProt P11413); assay: inhibition of Homo sapiens G6PD, dose series – biochemical, fluorescence, selectivity assay for P. falciparum G6PD inhibitor project, dose response (AID 504792); format: functional
Sequence of Glucose-6-phosphate 1-dehydrogenase (P11413 whole entry): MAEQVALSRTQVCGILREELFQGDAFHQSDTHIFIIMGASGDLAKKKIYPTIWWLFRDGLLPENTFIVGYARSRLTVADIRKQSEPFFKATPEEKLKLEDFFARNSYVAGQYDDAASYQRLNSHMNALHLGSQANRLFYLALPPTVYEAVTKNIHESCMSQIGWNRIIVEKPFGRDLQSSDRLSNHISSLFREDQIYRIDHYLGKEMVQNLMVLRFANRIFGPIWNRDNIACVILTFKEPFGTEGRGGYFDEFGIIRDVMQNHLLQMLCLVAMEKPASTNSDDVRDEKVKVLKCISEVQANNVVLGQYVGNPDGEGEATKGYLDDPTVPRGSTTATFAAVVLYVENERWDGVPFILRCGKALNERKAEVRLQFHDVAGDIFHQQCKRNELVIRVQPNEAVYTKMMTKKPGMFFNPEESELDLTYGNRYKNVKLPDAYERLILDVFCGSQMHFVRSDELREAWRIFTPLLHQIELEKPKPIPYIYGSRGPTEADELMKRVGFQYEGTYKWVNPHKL

[3] = target: T2, Apoptotic protease-activating factor 1 (Homo sapiens, UniProt O14727); format: functional
T2 sequence (O14727 whole entry): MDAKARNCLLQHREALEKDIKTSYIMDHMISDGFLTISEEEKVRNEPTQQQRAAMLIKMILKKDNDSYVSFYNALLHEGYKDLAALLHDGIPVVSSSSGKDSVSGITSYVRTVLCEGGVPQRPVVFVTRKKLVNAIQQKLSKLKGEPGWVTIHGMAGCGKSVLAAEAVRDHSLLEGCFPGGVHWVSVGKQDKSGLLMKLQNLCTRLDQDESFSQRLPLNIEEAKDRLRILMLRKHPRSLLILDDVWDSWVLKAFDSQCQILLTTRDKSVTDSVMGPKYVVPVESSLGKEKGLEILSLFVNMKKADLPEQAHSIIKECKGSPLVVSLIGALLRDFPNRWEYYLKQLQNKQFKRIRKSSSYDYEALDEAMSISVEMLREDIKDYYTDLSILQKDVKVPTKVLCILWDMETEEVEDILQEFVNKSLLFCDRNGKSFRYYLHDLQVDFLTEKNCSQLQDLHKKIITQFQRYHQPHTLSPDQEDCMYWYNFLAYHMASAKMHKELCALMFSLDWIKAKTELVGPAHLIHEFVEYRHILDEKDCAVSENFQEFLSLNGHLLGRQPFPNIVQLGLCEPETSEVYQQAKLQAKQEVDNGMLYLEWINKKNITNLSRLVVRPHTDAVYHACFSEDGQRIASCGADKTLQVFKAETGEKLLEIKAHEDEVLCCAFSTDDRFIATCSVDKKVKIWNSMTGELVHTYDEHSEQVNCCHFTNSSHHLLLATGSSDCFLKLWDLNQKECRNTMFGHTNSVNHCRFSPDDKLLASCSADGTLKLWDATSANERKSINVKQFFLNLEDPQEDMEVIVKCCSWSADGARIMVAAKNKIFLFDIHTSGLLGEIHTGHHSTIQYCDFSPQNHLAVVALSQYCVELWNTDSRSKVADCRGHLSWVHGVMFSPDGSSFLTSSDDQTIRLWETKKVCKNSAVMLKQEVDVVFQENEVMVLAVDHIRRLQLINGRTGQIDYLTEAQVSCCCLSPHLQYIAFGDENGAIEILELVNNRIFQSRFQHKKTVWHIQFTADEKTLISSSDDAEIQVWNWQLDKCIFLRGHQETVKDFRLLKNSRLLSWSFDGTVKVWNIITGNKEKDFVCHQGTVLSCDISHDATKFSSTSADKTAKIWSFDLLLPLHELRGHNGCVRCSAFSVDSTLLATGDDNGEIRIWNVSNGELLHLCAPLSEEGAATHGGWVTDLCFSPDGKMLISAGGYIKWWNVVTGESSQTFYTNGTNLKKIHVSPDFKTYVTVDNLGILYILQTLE

[4] = target: Heat shock protein HSP 90-alpha (Homo sapiens, UniProt P07900); format: functional, organism-based
[5] = THP-1 cell cytotoxicity, dose response, cytotoxicity control for non-replicating M. tuberculosis project (AID 489025); format: functional
cells [6] = format: functional
[7] = luciferase reporter signal suppression in cells – H4 neuroglioma cells, luminescence, dose response (AID 1990); format: functional, cell-based
[8] = Vero E6 cell cytotoxicity, dose response, cytotoxicity control for non-replicating M. tuberculosis project, secondary assay (AID 492998); format: functional, VeroE6; settings: Vero C1008
[9] = Luminescence Cell-Based Dose Response HTS to Identify Inhibitors of 5'UTR Stem-Loop Driven Prion Protein mRNA Translation in H4 Neuroglioblastoma Cells. [Related pubchem assays: 1827 (Project Summary), 1813 (Primary HTS)]; format: functional
[10] = HepG2 cell cytotoxicity, dose response, cytotoxicity control for non-replicating M. tuberculosis project (AID 489018); format: functional; settings: Mycobacterium tuberculosis
[11] = alpha-synuclein stem-loop luciferase translation blockers – H4 neuroglioma cells, luminescence, confirmation (AID 1988); format: functional, cell-based
Nonstructural protein 1 = Nonstructural protein 1 (Influenza A virus, UniProt Q194T2); format: functional, Influenza A virus (A/California/07/2009(H1N1))
Sequence of Nonstructural protein 1 (Q194T2 whole entry): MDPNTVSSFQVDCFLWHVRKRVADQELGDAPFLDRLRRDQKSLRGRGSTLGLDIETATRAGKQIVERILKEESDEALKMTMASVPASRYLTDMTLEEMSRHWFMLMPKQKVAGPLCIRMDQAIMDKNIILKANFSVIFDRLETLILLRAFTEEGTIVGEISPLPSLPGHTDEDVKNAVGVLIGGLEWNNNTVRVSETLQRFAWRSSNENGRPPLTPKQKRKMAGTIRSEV

cells [12] = format: functional, cell-based
[13] = NIH-3T3 fibroblast cytotoxicity, dose response, cytotoxicity control, cell-based, fluorescence, Alamar Blue, secondary assay (AID 2327); format: functional;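 further: NIH-3T3 mouse fibroblasts cultured with fluconazole at 8 µg/mL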
cells [14] = format: functional, cell-based; remark: listed apart in the source
[15] = fluconazole-exposed Candida albicans growth modulators – fluorescence, retest, confirmation (AID 2467); format: functional, cell-based
[16] = Trypanosoma cruzi growth suppression in host cells – NIH3T3 host cells, beta-gal luminescence, confirmation (AID 2044); format: functional, cell-based;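 further: intracellular parasites grown in NIH/3T3 mouse fibroblasts as host cells; luminescent beta-galactosidase reporter signal from transgenic T. cruzi replicating inside host cells; inhibitors lower the luminescence signal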
[17] = viability of HCT116 lacking mutant beta-catenin – cell-based, human colon tumor, dose response (AID 1045); format: functional;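 further: HCT116 colon tumor cells with beta catenin knocked out; cells exposed to compound for 60 hours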
[18] = viability of PTEN-deleted HCT116 cells – cell-based, HCT116 PTEN knockout, dose response (AID 1047); format: functional;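 further: HCT116 colon tumor cells with PTEN knocked out; cells exposed to compound for 60 hours before readout; potency for loss of cell viability measured by luminescence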
[19] = NIH3T3 cell viability loss – ATP luminescence, mouse fibroblasts, counter-screen, dose response (AID 2010); format: functional, cell-based; settings: NIH3T3;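 further: cells exposed to compound for about 90 hours before reading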
Streptococcus = assay: GAS UMAA2166 growth inhibition – luminescence, BacTiterGlo, counter-screen for streptokinase expression inhibitor project, dose response (AID 1915); format: functional, organism-based; settings: Streptococcus;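 further: potency for reduction of bacterial viability or growth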
Streptokinase A = target: T3, Streptokinase A (Streptococcus pyogenes serotype M1, UniProt P10520); assay: viability-normalized secreted streptokinase activity reduction – plasminogen activation absorbance, OD405, dose response (AID 1914); format: functional, Streptococcus pyogenes M1 GAS;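 further: secreted streptokinase activity via plasminogen activation per viability signal from cell pellet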
T3 sequence (P10520 whole entry): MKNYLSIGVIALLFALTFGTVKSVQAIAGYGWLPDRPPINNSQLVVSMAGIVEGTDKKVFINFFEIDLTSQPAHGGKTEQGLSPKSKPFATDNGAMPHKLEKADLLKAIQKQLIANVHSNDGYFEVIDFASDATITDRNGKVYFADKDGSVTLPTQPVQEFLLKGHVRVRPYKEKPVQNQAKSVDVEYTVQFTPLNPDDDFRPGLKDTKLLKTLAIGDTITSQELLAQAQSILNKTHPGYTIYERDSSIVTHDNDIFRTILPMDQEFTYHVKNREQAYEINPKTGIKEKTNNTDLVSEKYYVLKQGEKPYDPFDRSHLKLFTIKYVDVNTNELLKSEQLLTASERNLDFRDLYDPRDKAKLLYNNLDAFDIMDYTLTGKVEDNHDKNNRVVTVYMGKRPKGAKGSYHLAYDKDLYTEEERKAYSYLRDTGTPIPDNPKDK

[20] = tested on: Streptococcus sp. 'group A'; assay: Streptococcus pyogenes SK(-)GAS viability under kanamycin – luminescence, BacTiterGlo, confirmation, counter-screen for streptokinase expression inhibitor project, dose response (AID 1900); format: functional, organism-based; settings: Streptococcus sp. 'group A'

O=C(NNC(=O)c1ccc2ccccc2c1)c1ccc(Cl)c(Cl)c1
IC50 [1]: > 80 µM (inactive)

CCOc1cc(NCc2ccccc2)c2ncn(C(C)C)c2c1
IC50 [2]: > 80 µM (inactive) | IC50 [3]: 34.7 µM (active)

CCOC(=O)c1ccc(N2C(=O)CC(N(C)CCc3ccc(OC)c(OC)c3)C2=O)cc1 (stereo unspecified)
AC50 [4]: 3.1 µM (active)

CCC(=O)Nc1nc2ccccc2n1Cc1ccc(C)cc1
CC50 [5]: > 40 µM (active) | IC50 (cells [6]): 0.7 µM (active) | EC50 [7]: 15.1 µM (active) | CC50 [8]: 16.1 µM (active) | EC50 [9]: 11.8 µM (active) | CC50 [10]: > 20 µM (active) | EC50 [11]: 8.69 µM (active)

Cc1cccc(C(=O)Nc2sc3c(c2C(=O)O)CCCC3)c1
IC50 [2]: > 80 µM (inactive)

O=C(CSc1ccccn1)Nc1ccc2c(c1)C(=O)c1ccccc1C2=O
IC50 [1]: 3.08 µM (active)

CC1=[N+](C)c2c(ccc3cccnc23)C1(C)C
IC50 (Nonstructural protein 1): > 100 µM (active)

CN1CCN(Cc2cc(COCc3ccccc3)c3cccnc3c2O)CC1
IC50 (Nonstructural protein 1): 3.98 µM (active) | EC50 (cells [12]): > 350 µM (not active) | EC50 [7]: 7.01 µM (active) | EC50 [13]: > 150 µM (inconclusive) | EC50 [9]: 8.1 µM (active) | EC50 (cells [14]): 7.14 µM (active) | EC50 [15]: 0.8 µM (active) | EC50 [16]: 1.37 µM (active) | EC50 [17]: 3.23 µM (active) | EC50 [18]: 3.11 µM (active) | EC50 [19]: 7.62 µM (active) | EC50 [11]: 5.83 µM (active)

CCCc1cc(NCc2ccccn2)n2nc(C)c(-c3ccccc3)c2n1
CC50 [5]: 10.2 µM (active) | IC50 (cells [6]): 1.18 µM (active) | EC50 (Streptococcus): 21.7 µM (active) | EC50 (Streptokinase A): > 150 µM (not active) | CC50 [8]: > 20 µM (active) | EC50 [20]: 6.67 µM (active) | EC50 [16]: 3.58 µM (active) | CC50 [10]: 4.48 µM (active) | AC50 [4]: 1.58 µM (active) | EC50 [19]: 8.73 µM (active)
